Reference: US8653115B2, “Heterocyclic non-nucleoside compounds, their preparation, pharmaceutical composition and their use as antiviral agents” (Shanghai Institute of Materia Medica, Chinese Academy of …, priority 2006, dated 2014)

What was measured:
[1] = Cytotoxicity to HepG2.2.15 cells, MTT method; format: cell-based; conditions: human, HepG2.2.15 cells (HBV-transgenic human hepatoma cell line), day 8, 50% death concentration
Method: (§1) Hepatitis B virus (HBV) transgenic human hepatoma carcinoma cell, HepG2.2.15 cell line, can secrete hepatitis B virus particles (containing antigen and DNA) into the supernatant when being incubated.
(§2) Under the influence of antiviral drugs, the contents of HBsAg, HBeAg and viral DNA secreted from cells into the supernatant were detected. Compared with the contents of control groups without drugs, the antiviral activity of the sample drugs can be observed. Meanwhile, the cytotoxic effect of the sample drugs can be detected. The value concentration of the sample drugs which caused 50% of the cells dead measured with MTT method was CC50. And the value concentration of the sample drugs which inhibited 50% of the secretion of HBsAg and HBeAg detected by specific ELISA kits and inhibited 50% of the viral DNA replication detected by fluorescent quantitation PCR method was IC50.
(§3) HepG2.2.15 cells were inoculated into a 96-well plate, and the sample drugs were added next day. The medium and the sample drugs with the same concentration were renewed periodically, and the supernatants were collected on the eighth day to be detected. MTT was added to the cells in the 96-well plate, and MTT dissolving solution was added after 4 hours and reacted overnight. OD570 was measured on ELISA the next day. The cytotoxicity of the sample drugs to HepG2.2.15 cells, the effect of the sample drugs on the growth of the cells, and the concentration of the sample drugs (CC50) resulting in 50% of the cells dead were estimated according to the OD values.

[2] = system: Hepatitis B virus (HBV) DNA; assay: HBV-DNA replication in HepG2.2.15 supernatant, fluorescent quantification PCR; format: cell-based; conditions: for IC50: Hepatitis B virus, 192 h, HepG2.2.15 supernatant, day 8, PCR, NA means no obvious biological activity or unable to be calculated
Method: as §1, §2, §3
A suitable amount of supernatant was added to the same volume of virus extract solution, and was boiled after mixed homogenously, then centrifuged at 10000 rpm under room temperature for 5 minutes, and a suitable amount of supernatant was collected for PCR amplification. Meanwhile five HBV-DNA standard samples were set to establish a standard curve. According to the obtained viral DNA replication value, the inhibition ratios of HBV-DNA replication of each sample drug at different concentrations were calculated, and then the half inhibition rates of the sample drugs were calculated to obtain IC50. For those samples that can not be calculated for IC50 values, they can be represented by ICx and list the corresponding concentration values.

[3] = system: Duck hepatitis B virus (DHBV); assay: Anti hepatitis B virus activity on animal: DHBV-DNA level in serum of infected ducks, dot blot hybridization; format: in vivo, Beijing duck; conditions: 50 mg/kg oral (intragastric) twice per day for 10 days; for inhibitory effect to DHBV-DNA in duck serum, group analysis (versus virus control group) / inhibitory effect to DHBV-DNA in duck serum, paired analysis (versus T0 of same group): T5, T10, P3
Method: The solutions of the sample drugs having required concentration (100 mg/mL) were prepared by using 0.3% sodium carboxymethyl cellulose. Batch number: 00701010
Strong positive serum of Duck hepatitis B virus DNA (DHBV-DNA), collected from Shanghai brown-duck, was store at −70[…].
1-day-old Beijing duck, purchased from Beijing QianJin breeding duck farm.
1-day-old Beijing duck was injected DHBV-DNA positive serum of Shanghai brown-duck via vena cruralis with 0.2 ml/each duck. Blood was taken on the seventh day after infected; serum was separated and stored at −70[…] to be detected.
DHBV infected ducklings were randomly grouped (six ducklings/each group) to carry out drug treatment experiment after 7 days. The administration groups (W28D, W28F, W28M, C37) were set 1 dose group—50 mg/kg respectively, and oral (intragastric) administered twice per day for 10 days (Bid×10). The drugs were replaced with normal saline in virus control group (DHBV). […] Blood was taken from the vena cruralis of the duck after 7 days later of infection, i.e. before drug administration (T0), the fifth day (T5) and the tenth day after drug administration (T10), and the third day after drug withdrawal (P3), then serum was separated and stored at −70[…] to be detected.
The above duck serum was taken and dotted on the membrane to measure the dynamic level of DHBV-DNA in the duck serum. According to the instruction of nick translation kit, dot blot hybridization of duck serum and was carried out using ^32 P labeled DHBV-DNA probe (purchased from Promega Co.). And the dots were shown on the membrane by radioautography. The OD values (the filter was 490 nm) of the dots on the membrane were measured by ELISA. DHBV-DNA density of the serum was calculated and the OD values of the hybridized dot were used as the values of DHBV-DNA level.
a) The mean values (X±SD) of DHBV-DNA OD values of serum at different time of the ducks in each group were calculated, and the DNA levels of serum at different time after drug administration (T5, T10) and the third day after drug withdrawal (P3) for the ducks in each group and were compared with the OD values before administration (T0) of the same group. The values of t1 and P1 were calculated by paired-t test. The significance of the difference was analyzed, and the inhibitory effect of the drugs on the viral infection was estimated.
b). The inhibition ratio (%) to DHBV-DNA of serum at different time after administration (T5, T10) and the third day after drug withdrawal (P3) of the ducks in each group were calculated and illuminated in the figure, and the dynamic state of the inhibition ratios of DHBV-DNA in duck serum in each group were compared.
c) The inhibitions % of DHBV-DNA at different time of the administration group were compared with that at the same time of the virus control group. […] The significance of the difference was analyzed, and the drug action was estimated.

SMILES | CC50 at 8 day [1] [µM] | IC50 [2] [µM] | also measured
CCC(O)c1nc(-c2nccs2)sc1CC(C)C (stereo not drawn) [C282-2] | > 33.3 | 0.8 | –
CCOC(=O)c1nc(-c2ncccc2O)sc1CC(C)C [C306-3] | 5.67 | 0.14 | –
CCOC(=O)CCc1nc(-c2nccs2)sc1CC(C)C [C324-5] | > 33.3 | 3 | –
COC(=O)c1nc(-c2nccs2)sc1CC(C)C [W28] | > 333 | 2.4 | –
CNC(=O)c1nc(-c2nccs2)sc1CC(C)C [C281] | > 100 | – | DNA replication ICX: IC94 ([2]; concentration at 94% inhibition, IC50 not calculable): IC94 = 33 μM
CC(C)Cc1sc(-c2nccs2)nc1C(=O)NCc1ccc(F)cc1 [W28F] | 43 | 0.78 | DHBV-DNA rebound 3 days after drug withdrawal (P3) ([3]; then P3): rebounded, it did not reach the original level; inhibitory effect to DHBV-DNA in duck serum, group analysis (versus virus control group) [3]: T5 and T10 showed inhibitory effect to DHBV-DNA with statistical significance; inhibitory effect to DHBV-DNA in duck serum, paired analysis (versus T0 of same group) [3]: T5 and T10 showed inhibitory effect to DHBV-DNA with statistical significance
CC(=O)c1nc(-c2nccs2)sc1CC(C)C [C266] | > 33.3 | 0.06 | –
CCOC(=O)c1nc(-c2ccc(O)cc2)sc1CC(C)C [C305-4] | > 33.3 | – | –
CCOC(=O)c1nc(-c2ccc3ccccc3n2)[nH]c1CC(C)C [C323-2] | > 100 | – | –
CCOC(=O)C=Cc1nc(-c2nccs2)sc1CC(C)C [C322-2] | > 33.3 | 0.06 | –
CCOC(=O)c1nc(-c2ccc([N+](=O)[O-])cc2)sc1CC(C)C [C334-2] | > 33.3 | 1.06 | –
O=C(O)c1nc(-c2nccs2)sc1Cc1ccccc1 [Wang302] | 192 | 63.1 | –
CCOC(=O)c1nc(-c2ncc(-c3ccccc3)s2)sc1CC(C)C [C358] | > 33.3 | – | DNA replication ICX: IC36 ([2]; concentration at 36% inhibition, IC50 not calculable): IC36 = 1.23 μM
CCOC(=O)c1nc(-c2cccc([N+](=O)[O-])c2)sc1CC(C)C [C334-3] | > 33.3 | 1.2 | –
Cc1cnc(-c2nc(C(=O)OC(C)C)c(CC(C)C)s2)s1 [W28M] | > 20 | < 0.08 | inhibitory effect to DHBV-DNA in duck serum, group analysis (versus virus control group) [3]: did not show any effect with statistical significance; inhibitory effect to DHBV-DNA in duck serum, paired analysis (versus T0 of same group) [3]: T10 and P3 showed inhibitory effect to DHBV-DNA with statistical significance
CCOC(=O)c1nc(-c2ccccc2OC)sc1CC(C)C [C319-5] | > 33.3 | 0.04 | –
CC(C)Cc1sc(-c2nccs2)nc1C(C)O (stereo not drawn) [C268-2] | > 33.3 | 0.6 | –
CCOC(=O)c1nc(-c2cccnc2)sc1CC(C)C [C290-2] | > 100 | – | –
CC(C)Cc1sc(-c2nccs2)nc1C(=O)OC(C)(C)C [C324-6] | > 33.3 | 3.7 | –
CCOC(=O)c1nc(-c2ccncc2)sc1CC(C)C [C290-3] | > 100 | – | –
CCOC(=O)c1nc(-c2cccc(OC)c2)sc1CC(C)C [C319-4] | > 33.3 | 0.11 | –
CCOC(=O)c1nc(-c2ccc([N+](=O)[O-])c(OC)c2)sc1CC(C)C [C364-2] | > 33.3 | – | –
CCOC(=O)c1nc(-c2ccc3ccccc3n2)oc1CC(C)C [C324-4] | 45.4 | 11.9 | –

SMILES | CC50 at 8 day [1] [µM] | IC50 [2] [µM] | also measured
CC(C)Cc1sc(-c2nccs2)nc1C(=O)N(C)C [C295-3] | > 100 | – | DNA replication ICX: IC12 ([2]; concentration at 12% inhibition, IC50 not calculable): IC12 = 1.23 μM
CCOC(=O)c1nc(-c2ccc(NC(=O)OC(C)(C)C)cc2)sc1CC(C)C [C404] | > 33.3 | – | –
CCOC(=O)c1nc(-c2ccccn2)sc1CC(C)C [C290] | > 100 | 0.14 | –
CCOC(=O)c1nc(-c2ccccc2C)sc1CC(C)C [C303-3] | > 33.3 | 1.48 | –
CC(C)Cc1sc(-c2nccs2)nc1C(=O)OC(C)C [C310-4] | > 100 | 0.81 | inhibitory effect to DHBV-DNA in duck serum, group analysis (versus virus control group) [3]: T10 showed inhibitory effect to DHBV-DNA with statistical significance; inhibitory effect to DHBV-DNA in duck serum, paired analysis (versus T0 of same group) [3]: T10 showed inhibitory effect to DHBV-DNA with statistical significance
CCOC(=O)c1nc(-c2cccc([N+](=O)[O-])c2OC)sc1CC(C)C [C364-1] | 19.2 | 1.1 | –
CC(C)Cc1sc(-c2nccs2)nc1CO [C254] | > 33.3 | > 33.3 | –
CCOC(=O)c1nc(-c2ncc(Br)s2)sc1CC(C)C [C375] | > 33.3 | > 33.3 | –
CCOC(=O)c1nc(-c2cccc(C)c2)sc1CC(C)C [C303-2] | > 33.3 | > 33.3 | –
CCOC(=O)c1nc(-c2ccc(F)cc2)sc1CC(C)C [C307-2] | > 33.3 | – | –
CCOC(=O)c1nc(-c2ccc(OC)cc2)sc1CC(C)C [C319-3] | > 33.3 | 0.09 | –
CCOC(=O)c1nc(-c2cccc(F)c2)sc1CC(C)C [C307-3] | > 33.3 | < 0.05 | –
CCCCc1sc(-c2nccs2)nc1C(=O)O [Wang268] | 257 | – | DNA replication ICX: IC53 ([2]; concentration at 53% inhibition, IC50 not calculable): IC53 = 125 μM
CCOC(=O)c1nc(-c2cccc(O)n2)sc1CC(C)C [C306-2] | > 100 | 0.14 | –
CC(C)Cc1sc(-c2nccs2)nc1C(=O)Nc1ccccc1 [C343] | 50 | – | DNA replication ICX: IC19 ([2]; concentration at 19% inhibition, IC50 not calculable): IC19 = 1.23 μM
COc1ccc(-c2nc(C(=O)OC(C)C)c(CC(C)C)s2)cc1 [C37] | > 33 | 0.03 | inhibitory effect to DHBV-DNA in duck serum, group analysis (versus virus control group) [3]: at each time point did not show inhibitory effect to DHBV-DNA; inhibitory effect to DHBV-DNA in duck serum, paired analysis (versus T0 of same group) [3]: at each time point did not show inhibitory effect to DHBV-DNA
CCOC(=O)c1nc(-c2cccc(Cl)c2)sc1CC(C)C [C323-3] | > 33.3 | – | –
CCOC(=O)c1nc(-c2ccccc2F)sc1CC(C)C [C307-4] | > 33.3 | 0.14 | –
CCC(=O)c1nc(-c2nccs2)sc1CC(C)C [C280-4] | > 33.3 | 0.09 | –
CCOC(=O)c1nc(-c2ccc(C)cc2)sc1CC(C)C [C303-1] | > 33.3 | 2.9 | –
CCOC(=O)c1nc(-c2ccccn2)oc1CC(C)C [C274] | > 100 | 67.6 | –
CCOC(=O)c1nc(-c2ccccc2[N+](=O)[O-])sc1CC(C)C [C334-4] | > 33.3 | 1.24 | –
CC(C)Cc1sc(-c2nccs2)nc1C(N)=O [C267] | > 100 | – | DNA replication ICX: IC89 ([2]; concentration at 89% inhibition, IC50 not calculable): IC89 = 33 μM
